# Experimental data published in US11529354B2, “Methods and compositions for the treatment of tuberculosis” (PRESIDENT AND FELLOWS OF HARVARD COLLEGE, priority 2017, dated 2022).
# Read-outs that look alike come from different tables or passages of the source.
# Legend:
# [1] = tested on: Bacillus Calmette-Guérin (BCG); experiment: organism not typed; assay type: cell-based, Mycobacterium bovis
# [2] = MTT cytotoxicity assay; conditions: human
# [3] = tested on: M. avium A209; experiment: MIC on closely related bacteria: M. avium; assay type: cell-based; conditions: Mycobacterium avium
# [4] = tested on: M. scrofulaceum BZ-20; experiment: MIC on closely related bacteria: M. scrofulaceum; assay type: cell-based; conditions: Mycobacterium scrofulaceum, BZ20
# [5] = tested on: GFP-expressing BCG in infected THP-1 cells; experiment: microbe, parasite or virus in culture; assay type: cell-based; conditions: Mycobacterium tuberculosis variant bovis BCG, THP-1, read-out: IC50, growth of GFP-expressing BCG in infected THP-1 cells
# [6] = tested on: M. xenopi BZ-23; experiment: MIC on closely related bacteria: M. xenopi; assay type: cell-based; conditions: Mycobacterium xenopi, BZ23
# [7] = tested on: intracellular BCG within macrophages; assay type: cell-based, Mycobacterium bovis
# [8] = tested on: M. abscessus BZ-24; experiment: MIC on closely related bacteria: M. abscessus; assay type: cell-based; conditions: Mycobacteroides abscessus, BZ24
# [9] = in vitro; conditions: human
# [10] = tested on: M. cheelonae BZ-4; experiment: MIC on closely related bacteria: M. cheelonae; assay type: cell-based
# [11] = tested on: MTB H37Rv; experiment: microbe, parasite or virus in culture; assay type: cell-based, Mycobacterium tuberculosis; conditions: susceptible H37Rv
# [12] = tested on: M. terrae BZ-15; experiment: MIC on closely related bacteria: M. terrae; assay type: cell-based; conditions: Mycolicibacter terrae, BZ15
# [13] = tested on: clinical Mycobacterium tuberculosis strains (HsRs: 90#, 140#, 74#); experiment: microbe, parasite or virus in culture; assay type: cell-based
# [14] = read-out: MIC from in vitro validation
# [15] = read-out: MIC from in vitro validation on BCG
smiles,measurement,setting,value
"O=c1/c(=C/c2cc(Br)ccc2F)sc2nc3ccccc3n12 [CAS 292169-72-3, (Z)-2-(5-Bromo-2-fluorobenzylidene)benzo[4,5]imidazo[2,1-b]thiazol-3(2H)-one]",MIC,[1]; [14],> 128 µg/mL
"CO[C@H]1/C=C/O[C@@]2(C)Oc3c(C)c(O)c4c(O)c(c(/C=N/N5CCN(C)CC5)c(O)c4c3C2=O)NC(=O)/C(C)=C\C=C\[C@H](C)[C@H](O)[C@@H](C)[C@@H](O)[C@@H](C)[C@H](OC(C)=O)[C@@H]1C [Rifampicin, reference compound]",IC50,[2],1 µg/mL
"O=[N+]([O-])c1ccccc1CNCCc1c[nH]c2ccccc12 [CAS 355816-45-4, 2-(1H-indol-3-yl)-N-(2-nitrobenzyl)ethanamine]",MIC,[1]; [14],128 µg/mL
"Cn1ccc(=Nc2ccc(NC(=O)c3ccc(N=c4ccn(C)c5ccc([N+](=O)[O-])cc45)cc3)cc2)cc1 [NSC 260594, 4-[(1-methyl-6-nitroquinolin-4-ylidene)amino]-N-[4-[(1-methylpyridin-4-ylidene)amino]phenyl]benzamide]",MIC,[3],1.25 µg/mL
same,MIC,[4],> 80 µg/mL
same,IC50,[5],7.8 µg/mL
same,MIC,[6],> 80 µg/mL
same,intracellular anti-TB activity against BCG,[7],time- and concentration-dependent anti-TB activity
same,MIC,[8],> 80 µg/mL
same,performance on BCG compared with isoniazid and rifampicin,[1],performed at levels comparable of isoniazid and rifampicin
same,MIC,[1]; [15],0.078 µg/mL
same,IC50,[9],7.5 µg/mL
same,MIC,[10],> 80 µg/mL
same,MIC,"[11]; Mycobacterium tuberculosis, Table 7 and text, read-out: MIC",< 0.625 µg/mL
same,MIC,[11]; Table 4,<0.625 µg/mL
same,MIC,[11]; Table 7 and text,<0.625 µg/mL
same,MIC,[12],2.5 µg/mL
"O=C(Nc1ccc(Oc2ccc(NC(=O)Nc3ccccc3Cl)cc2)cc1)Nc1ccccc1Cl [NSC 80731, 1-(2-chlorophenyl)-3-[4-[4-[(2-chlorophenyl)carbamoylamino]phenoxy]phenyl]urea]",MIC,[1]; [15],80 µg/mL
"O=C(Nc1cccc(-c2nc3ccccc3[nH]2)c1)c1ccc(C(=O)Nc2cccc(-c3nc4ccccc4[nH]3)c2)cc1 [NSC 61610, 1-N,4-N-bis[3-(1H-benzimidazol-2-yl)phenyl]benzene-1,4-dicarboxamide]",MIC,[1]; [15],40 µg/mL
"O=[N+]([O-])c1ccc(C2CC(c3ccccc3)=Nc3ccccc3S2)cc1 (centres unmarked) [NSC 270738, 2-(4-nitrophenyl)-4-phenyl-2,3-dihydro-1,5-benzothiazepine]",MIC,[1]; [15],5 µg/mL
"c1ccc2cc(OCCOCCOc3ccc4ccccc4c3)ccc2c1 [NSC 37219, 2-[2-(2-naphthalen-2-yloxyethoxy)ethoxy]naphthalene]",MIC,[1]; [15],80 µg/mL
"COc1ccc(N2COc3ccc4cc(Br)ccc4c3C2)cc1 [CAS 376374-34-4, 8-bromo-2-(4-methoxyphenyl)-2,3-dihydro-1H-naphtho[1,2-e][1,3]oxazine]",MIC,[1]; [14],128 µg/mL
"O=C(O)C1C2C(=O)N(Cc3ccccn3)C[C@]23C=C[C@H]1O3 (stereo partly drawn) [CAS 1164528-69-1, (3aS,6R)-1-oxo-2-(pyridin-2-ylmethyl)-1,2,3,6,7,7a-hexahydro-3a,6-epoxyisoindole-7-carboxylic acid]",MIC,[1]; [14],> 128 µg/mL
"CO[C@@H]1[C@@H](OC(=O)c2ccc(C)[nH]2)[C@@H](O)[C@H](Oc2ccc3c(O)c(NC(=O)c4ccc(O)c(CC=C(C)C)c4)c(=O)oc3c2Cl)OC1(C)C [NSC 227186, [(3R,4S,5R,6S)-6-[8-chloro-4-hydroxy-3-[[4-hydroxy-3-(3-methylbut-2-enyl)benzoyl]amino]-2-oxochromen-7-yl]oxy-5-hydroxy-3-methoxy-2,2-dimethyloxan-4-yl]5-methyl-1H-pyrrole-2-carboxylate]",MIC,[3],80 µg/mL
same,MIC,[4],80 µg/mL
same,MIC,[6],80 µg/mL
same,MIC,[8],40 µg/mL
same,performance on BCG compared with isoniazid and rifampicin,[1],performed at levels comparable of isoniazid and rifampicin
same,MIC,[1]; [15],0.625 µg/mL
same,MIC,[10],40 µg/mL
same,MIC,"[11]; Mycobacterium tuberculosis, Table 4, read-out: MIC",< 0.625 µg/mL
same,MIC,[12],> 80 µg/mL
"O=C1CC(c2cccc(O)c2)Nc2ccc3ccccc3c21 (centres unmarked) [CAS 333759-52-7, 3-(3-hydroxyphenyl)-3,4-dihydrobenzo[f]quinolin-1(2H)-one]",MIC,[1]; [14],> 128 µg/mL
"Cc1ccc2[nH]c3c(c2c1)CCCC3NCc1ccccc1 (centres unmarked) [CAS 118498-98-9, N-benzyl-6-methyl-2,3,4,9-tetrahydro-1H-carbazol-1-amine]",MIC,[1]; [14],32 µg/mL
same,MIC,[13],6.4 µg/mL
same,MIC,"[13]; strain 74#, HsRs, read-out: MIC",6.4 µg/mL
same,MIC,"[13]; strain 140#, HsRs, read-out: MIC",3.2 µg/mL
"O=[N+]([O-])c1cccc(CNC2CCCc3ccccc32)c1 (centres unmarked) [CAS 353779-33-6, N-(3-nitrobenzyl)-1,2,3,4-tetrahydronaphthalen-1-amine]",MIC,[1]; [14],128 µg/mL
